According to patent US20250332149A1, “PIPERIDINE COMPOUNDS AND PHARMACEUTICAL COMPOSITIONS” (Lumos Pharma, Inc., priority 2024, published 2025):
Read-outs that look alike come from different tables or passages of the source.

Assay: Phase 1 study Part 1: plasma PK and relative bioavailability of LUM-201 tablets vs capsule
Format: in vivo, human
Details: for decrease of DNCmax as compared to the 90 mg tablet dose, fasted: statistically significant; for Tmax / AUC(0-inf) / AUC(0-t) / Cmax / half-life: human, plasma
Text: This study in healthy adult subjects was designed to establish the pharmacokinetic (PK) and pharmacodynamic (PD) profiles for the orally administered test product (coated mini-tablets in a capsule) and reference product (mini-tablet) to evaluate relative bioavailability in Part 1 and to evaluate the food effect on the bioavailability of test product (capsule only) in Part 2.
This was a single center, open-label, randomized, Phase 1 study in healthy adult subjects. This study consisted of 2 parts: Part 1 was a 4-sequence, 4-treatment, 4 Treatment Periods, crossover study to determine the relative bioavailability of current tablets to new capsule formulations of LUM-201; Part 2 was a 2-sequence, 2-treatment, 2 Treatment Periods, crossover study to evaluate the food effect on the bioavailability of the new capsule formulation of LUM-201. An individual subject was allowed to participate in only 1 part (Part 1 or Part 2) of the study. Forty subjects were planned and enrolled in this study. • Part 1: A total of 28 subjects were planned and enrolled in Part 1. Part 1 consisted of 4 sequences, each having 4 Treatment Periods enrolling 7 subjects (1:1:1:1 ratio). During Treatment Periods 1 through 4, each subject received 4 single oral doses of LUM-201 drug product in a randomized, crossover order. • Part 2: A total of 12 subjects were planned and enrolled in Part 2. Part 2 consisted of 2 sequences, each having 2 Treatment Periods enrolling 6 subjects (1:1 ratio). Each subject received a single oral dose of LUM-201 at each Treatment Period. During Treatment Periods 1 and 2, each subject received 2 single oral doses of LUM-201 in a randomized, crossover order. • On Day 1 of Treatment Period 1, subjects were administered the assigned treatment (A or B) as randomized, followed by a washout of at least 3 days between Treatment Periods 1 and 2. Subjects stayed in-house (not discharged) between the Treatment Periods. • Treatment A was dosed at 85.3 mg capsule formulation of LUM-201 (intact capsule consumed unopened) consumed while subject was in a fasted state with 240 mL of water. • Treatment B was dosed at 85.3 mg capsule formulation of LUM-201 (intact capsule consumed unopened) consumed 30 minutes after start of a high-fat meal with 240 mL of water. • Subjects were discharged from the study center on the morning of Day 3 of Treatment Period 2 after the scheduled study assessments had been completed.
• Treatment A (reference): five 18 mg oral tablets of LUM-201 were administered under fasted state with 240 mL of water. • Treatment B (test): a single 85.3 mg dose of oral capsule formulation of LUM-201 was administered as a whole capsule under fasted state with 240 mL of water. • Treatment C (test): a single 85.3 mg dose of oral capsule formulation of LUM-201 was administered by dosing capsule contents (dry) under fasted state with 240 mL of water. • Treatment D (test): a single 85.3 mg dose of oral capsule formulation of LUM-201 was mixed (capsule contents) with banana puree (2 teaspoons), followed by 240 mL of water and was ingested within 5 minutes under fasted state (Note: Banana Puree, single serve cup was used [118.3 mL]). […]

[1] = Part 1, Treatment D (test): 85.3 mg capsule contents in banana puree, oral, fasted
[2] = Part 1, Treatment D (test): 85.3 mg capsule contents in banana puree, oral, fasted, ANOVA
[3] = test Treatment B (85.3 mg whole capsule, fasted) to reference Treatment A (90 mg tablets, fasted)
[4] = test Treatment C (85.3 mg capsule contents in dosing cup, fasted) to reference Treatment A (90 mg tablets, fasted)
[5] = test Treatment D (85.3 mg capsule contents in banana puree) to reference Treatment A (90 mg tablets, fasted)

SMILES: CC(C)(N)C(=O)N[C@H](COCc1ccccc1)C(=O)N1CCC2(CC1)CN(S(C)(=O)=O)c1ccccc12 [LUM-201, N-[1(R)-[(1,2-dihydro-1-methanesulfonylspiro[3H-indole-3,4′-piperdin]-yl)carbonyl]-2-(phenylmethyloxy)ethyl]-2-amino-2-methylpropanamide methanesulfonate]
- DNAUC0-last, Geometric Mean [1]: 6.276 ng·h/mL/mg
- DNCmax, Arithmetic Mean [1]: 1.422 ng/mL/mg
- DNCmax, Geometric Mean [1]: 1.087 ng/mL/mg
- t1/2, Geometric Mean [1]: 8.09 h
- tlag, Median [1]: 0 h
- tlast, Median [1]: 48.02 h
- λz, Arithmetic Mean [1]: 0.0872 h⁻¹
- λz, Geometric Mean [1]: 0.0856 h⁻¹
- DNAUC0-inf, GLS Mean [2]: 6.38 ng·h/mL/mg
- DNAUC0-last, GLS Mean [2]: 6.26 ng·h/mL/mg
- DNCmax, GLS Mean [2]: 1.08 ng/mL/mg
- decrease of DNCmax as compared to the 90 mg tablet dose, fasted (Treatment B: 85.3 mg whole capsule, fasted): 14.1%
- decrease of DNCmax as compared to the 90 mg tablet dose, fasted (Treatment C: 85.3 mg capsule contents in a dosing cup, fasted): 20.4%
- decrease of DNCmax as compared to the 90 mg tablet dose, fasted (Treatment D: 85.3 mg capsule contents in banana puree): 14.4%
- Tmax (oral, Part 1, post-dose, Treatments A to D, read-out: median tmax, range over all four treatments): 0.782 to 1.23 h
- AUC(0-inf) (po, 85.3 mg, Part 1, Treatment B (test): 85.3 mg whole capsule, oral, fasted, read-out: AUC0-inf, Arithmetic Mean): 566 ng·h/mL
- AUC(0-inf) (po, 85.3 mg, Part 1, Treatment B (test): 85.3 mg whole capsule, oral, fasted, read-out: AUC0-inf, Geometric Mean): 512 ng·h/mL
- AUC(0-t) (po, 85.3 mg, Part 1, Treatment B (test): 85.3 mg whole capsule, oral, fasted, read-out: AUC0-last, Arithmetic Mean): 557 ng·h/mL
- AUC(0-t) (po, 85.3 mg, Part 1, Treatment B (test): 85.3 mg whole capsule, oral, fasted, read-out: AUC0-last, Geometric Mean): 504 ng·h/mL
- Cmax (po, 85.3 mg, Part 1, Treatment B (test): 85.3 mg whole capsule, oral, fasted, read-out: Cmax, Arithmetic Mean): 115 ng/mL
- Cmax (po, 85.3 mg, Part 1, Treatment B (test): 85.3 mg whole capsule, oral, fasted, read-out: Cmax, Geometric Mean): 93.2 ng/mL
- half-life (po, 85.3 mg, Part 1, Treatment B (test): 85.3 mg whole capsule, oral, fasted, read-out: t1/2, Arithmetic Mean (converted)): 8.19 h
- half-life (po, 85.3 mg, Part 1, Treatment B (test): 85.3 mg whole capsule, oral, fasted, read-out: t1/2, Geometric Mean (converted)): 8.06 h
- Tmax (po, 85.3 mg, Part 1, Treatment B (test): 85.3 mg whole capsule, oral, fasted, read-out: tmax, Median): 1.23 h
- AUC(0-inf) (po, 85.3 mg, Part 1, Treatment C (test): 85.3 mg capsule contents (dry), oral, fasted, read-out: AUC0-inf, Arithmetic Mean): 583 ng·h/mL
- AUC(0-inf) (po, 85.3 mg, Part 1, Treatment C (test): 85.3 mg capsule contents (dry), oral, fasted, read-out: AUC0-inf, Geometric Mean): 534 ng·h/mL
- AUC(0-t) (po, 85.3 mg, Part 1, Treatment C (test): 85.3 mg capsule contents (dry), oral, fasted, read-out: AUC0-last, Arithmetic Mean): 573 ng·h/mL
- AUC(0-t) (po, 85.3 mg, Part 1, Treatment C (test): 85.3 mg capsule contents (dry), oral, fasted, read-out: AUC0-last, Geometric Mean): 524 ng·h/mL
- Cmax (po, 85.3 mg, Part 1, Treatment C (test): 85.3 mg capsule contents (dry), oral, fasted, read-out: Cmax, Arithmetic Mean): 98.9 ng/mL
- Cmax (po, 85.3 mg, Part 1, Treatment C (test): 85.3 mg capsule contents (dry), oral, fasted, read-out: Cmax, Geometric Mean): 86.5 ng/mL
- half-life (po, 85.3 mg, Part 1, Treatment C (test): 85.3 mg capsule contents (dry), oral, fasted, read-out: t1/2, Arithmetic Mean (converted)): 8.58 h
- half-life (po, 85.3 mg, Part 1, Treatment C (test): 85.3 mg capsule contents (dry), oral, fasted, read-out: t1/2, Geometric Mean (converted)): 8.47 h
- Tmax (po, 85.3 mg, Part 1, Treatment C (test): 85.3 mg capsule contents (dry), oral, fasted, read-out: tmax, Median): 1.12 h
- AUC(0-inf) (po, 85.3 mg, Part 1, Treatment D (test): 85.3 mg capsule contents in banana puree, oral, fasted, read-out: AUC0-inf, Arithmetic Mean): 629 ng·h/mL
- AUC(0-inf) (po, 85.3 mg, Part 1, Treatment D (test): 85.3 mg capsule contents in banana puree, oral, fasted, read-out: AUC0-inf, Geometric Mean): 546 ng·h/mL
- AUC(0-t) (po, 85.3 mg, Part 1, Treatment D (test): 85.3 mg capsule contents in banana puree, oral, fasted, read-out: AUC0-last, Arithmetic Mean): 619 ng·h/mL
- AUC(0-t) (po, 85.3 mg, Part 1, Treatment D (test): 85.3 mg capsule contents in banana puree, oral, fasted, read-out: AUC0-last, Geometric Mean): 535 ng·h/mL
- Cmax (po, 85.3 mg, Part 1, Treatment D (test): 85.3 mg capsule contents in banana puree, oral, fasted, read-out: Cmax, Arithmetic Mean): 121 ng/mL
- Cmax (po, 85.3 mg, Part 1, Treatment D (test): 85.3 mg capsule contents in banana puree, oral, fasted, read-out: Cmax, Geometric Mean): 92.7 ng/mL
- half-life (po, 85.3 mg, Part 1, Treatment D (test): 85.3 mg capsule contents in banana puree, oral, fasted, read-out: t1/2, Arithmetic Mean (converted)): 8.23 h
- half-life (po, 85.3 mg, Part 1, Treatment D (test): 85.3 mg capsule contents in banana puree, oral, fasted, read-out: t1/2, Geometric Mean (converted)): 8.1 h
- Tmax (po, 85.3 mg, Part 1, Treatment D (test): 85.3 mg capsule contents in banana puree, oral, fasted, read-out: tmax, Median): 1.03 h
- AUC(0-inf) (po, 90 mg, Part 1, Treatment A (reference): five 18 mg tablets (90 mg), oral, fasted, read-out: AUC0-inf, Arithmetic Mean): 630 ng·h/mL
- AUC(0-inf) (po, 90 mg, Part 1, Treatment A (reference): five 18 mg tablets (90 mg), oral, fasted, read-out: AUC0-inf, Geometric Mean): 562 ng·h/mL
- AUC(0-t) (po, 90 mg, Part 1, Treatment A (reference): five 18 mg tablets (90 mg), oral, fasted, read-out: AUC0-last, Arithmetic Mean): 620 ng·h/mL
- AUC(0-t) (po, 90 mg, Part 1, Treatment A (reference): five 18 mg tablets (90 mg), oral, fasted, read-out: AUC0-last, Geometric Mean): 552 ng·h/mL
- Cmax (po, 90 mg, Part 1, Treatment A (reference): five 18 mg tablets (90 mg), oral, fasted, read-out: Cmax, Arithmetic Mean): 132 ng/mL
- Cmax (po, 90 mg, Part 1, Treatment A (reference): five 18 mg tablets (90 mg), oral, fasted, read-out: Cmax, Geometric Mean): 114 ng/mL
- half-life (po, 90 mg, Part 1, Treatment A (reference): five 18 mg tablets (90 mg), oral, fasted, read-out: t1/2, Arithmetic Mean (converted)): 7.95 h
- half-life (po, 90 mg, Part 1, Treatment A (reference): five 18 mg tablets (90 mg), oral, fasted, read-out: t1/2, Geometric Mean (converted)): 7.83 h
- Tmax (po, 90 mg, Part 1, Treatment A (reference): five 18 mg tablets (90 mg), oral, fasted, read-out: tmax, Median): 0.782 h
- DNAUC0-inf, Geo LSM Ratio % [3]: 95.50%
- DNAUC0-last, Geo LSM Ratio % [3]: 95.50%
- DNCmax, Geo LSM Ratio % [3]: 85.90%
- DNAUC0-inf, Geo LSM Ratio % [4]: 99.50%
- DNAUC0-last, Geo LSM Ratio % [4]: 99.40%
- DNCmax, Geo LSM Ratio % [4]: 79.60%
- DNAUC0-inf, Geo LSM Ratio % [5]: 102.20%
- DNAUC0-last, Geo LSM Ratio % [5]: 102.00%
- DNCmax, Geo LSM Ratio % [5]: 85.60%
